Source: patent publication US20110118262A1, “Pyrrolidinyl and Piperidinyl Compounds Useful as NHE-1 Inhibitiors” (BOEHRINGER INGELHEIM INTERNATIONAL GMBH, priority 2008, published 2011)

Target: T1, NHE-1 (Homo sapiens, UniProt P19634)
T1 construct: endogenous in cells; host or cells: HT-29
Assay: Evaluation of NHE-1 Inhibition (pHi) in HT-29 cells
Format: cell-based
Conditions: BCECF dye, 50% inhibition of the intracellular pH recovery, read-out: NHE1 HT29 pHi IC50
Description: Evaluation of NHE-1 Inhibition (pHi)
HT-29 cells resuspended in DMEM supplemented with 10% FBS, 1% NEAA, and 1% Penn-Strep are seeded at 10,000 cells/well in collagen coated 384 well plates which are then incubated for 24 hours at 37° C. The next day, the medium is removed and the cells are dye (Invitrogen's BCECF) loaded for 30 minutes at 37° C., washed three times with an acid loading buffer (10 mM NH4Cl, 1.8 mM CaCl2, 90 mM Choline Cl, 5 mM Glucose, 15 mM Hepes, 5 mM KCl, 1 mM MgCl2, adjusted to pH 7.5 with KOH) and further incubated at RT for 30 minutes.
At the end of the incubation, the buffer is removed and 5 uL of fresh acid loading buffer is added to each well to prevent the dessication of the cells. The plate is placed in a Hamamatsu FDSS6000 instrument and candidate compounds are added to the cells.

T1 sequence (P19634 whole entry): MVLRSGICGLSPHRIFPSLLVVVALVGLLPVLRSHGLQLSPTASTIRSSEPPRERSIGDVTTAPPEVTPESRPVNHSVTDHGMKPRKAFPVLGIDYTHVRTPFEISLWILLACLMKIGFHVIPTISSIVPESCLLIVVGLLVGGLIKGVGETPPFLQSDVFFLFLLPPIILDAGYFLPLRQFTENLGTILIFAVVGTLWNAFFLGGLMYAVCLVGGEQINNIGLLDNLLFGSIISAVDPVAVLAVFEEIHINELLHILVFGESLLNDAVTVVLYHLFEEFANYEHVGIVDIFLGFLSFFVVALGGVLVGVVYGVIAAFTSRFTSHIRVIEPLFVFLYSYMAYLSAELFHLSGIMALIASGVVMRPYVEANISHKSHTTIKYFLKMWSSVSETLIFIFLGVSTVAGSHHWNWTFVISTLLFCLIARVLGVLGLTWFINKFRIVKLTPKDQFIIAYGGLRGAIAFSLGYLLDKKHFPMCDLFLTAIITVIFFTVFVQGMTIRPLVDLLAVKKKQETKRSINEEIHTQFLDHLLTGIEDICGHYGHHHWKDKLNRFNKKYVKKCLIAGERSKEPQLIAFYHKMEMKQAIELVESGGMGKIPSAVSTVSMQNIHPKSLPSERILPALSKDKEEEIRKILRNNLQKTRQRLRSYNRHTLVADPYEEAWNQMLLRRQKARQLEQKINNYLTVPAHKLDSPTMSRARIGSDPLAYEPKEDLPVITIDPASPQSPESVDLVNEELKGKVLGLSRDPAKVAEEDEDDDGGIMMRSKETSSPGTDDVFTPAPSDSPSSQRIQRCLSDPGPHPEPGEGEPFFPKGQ

| IC50 [nM] | Compound |
| --- | --- |
| 37 | COc1ccc(CC(N)C(=O)N2CCC(c3ccc(C(=O)NC(=N)N)cc3C(F)(F)F)CC2)cc1 (stereo not drawn) |
| 13 | N=C(N)NC(=O)c1ccc(C2CCN(C(=O)c3ccc(Cl)c(S(N)(=O)=O)c3)CC2)c(C(F)(F)F)c1 [2-Chloro-5-[4-(4-guanidinocarbonyl-2-trifluoromethyl-phenyl)-piperidine-1-carbonyl]-benzenesulfonamide] |
| 15 | N=C(N)NC(=O)c1ccc(C2CCN(C(=O)C(N)CC(N)=O)CC2)c(C(F)(F)F)c1 (stereo not drawn) [3-Amino-4-[4-(4-guanidinocarbonyl-2-trifluoromethyl-phenyl)-piperidin-1-yl]-4-oxo-butyramide] |
| 6 | N=C(N)NC(=O)c1ccc(C2CCN(C(N)=O)CC2)c(C(F)(F)F)c1 [4-(4-Guanidinocarbonyl-2-trifluoromethyl-phenyl)-piperidine-1-carboxylic acid amide] |
| 10 | CN(C)C(=O)N1CCC(c2ccc(C(=O)NC(=N)N)cc2C(F)(F)F)CC1 [4-(4-Guanidinocarbonyl-2-trifluoromethyl-phenyl)-piperidine-1-carboxylic acid dimethylamide] |
| 48 | CN(C)C(=O)c1ccc(C(=O)N2CCC(c3ccc(C(=O)NC(=N)N)cc3C(F)(F)F)CC2)cc1 [4-[4-(4-Guanidinocarbonyl-2-trifluoromethyl-phenyl)-piperidine-1-carbonyl]-N,N-dimethyl-benzamide] |
| 36 | CN(C)S(=O)(=O)c1ccc(C(=O)N2CCC(c3ccc(C(=O)NC(=N)N)cc3C(F)(F)F)CC2)cc1 [4-[4-(4-Guanidinocarbonyl-2-trifluoromethyl-phenyl)-piperidine-1-carbonyl]-N,N-dimethyl-benzenesulfonamide] |
| 43 | CNC(=O)c1ccc(C(=O)N2CCC(c3ccc(C(=O)NC(=N)N)cc3C(F)(F)F)CC2)cc1 [4-[4-(4-Guanidinocarbonyl-2-trifluoromethyl-phenyl)-piperidine-1-carbonyl]-N-methyl-benzamide] |
| 51 | CNS(=O)(=O)c1ccc(C(=O)N2CCC(c3ccc(C(=O)NC(=N)N)cc3C(F)(F)F)CC2)cc1 [4-[4-(4-Guanidinocarbonyl-2-trifluoromethyl-phenyl)-piperidine-1-carbonyl]-N-methyl-benzenesulfonamide] |
| 28 | N=C(N)NC(=O)c1ccc(C2CCN(C(=O)c3ccc(C(N)=O)cc3)CC2)c(C(F)(F)F)c1 [4-[4-(4-Guanidinocarbonyl-2-trifluoromethyl-phenyl)-piperidine-1-carbonyl]-benzamide] |
| 13 | N=C(N)NC(=O)c1ccc(C2CCN(C(=O)c3ccc(S(N)(=O)=O)cc3)CC2)c(C(F)(F)F)c1 [4-[4-(4-Guanidinocarbonyl-2-trifluoromethyl-phenyl)-piperidine-1-carbonyl]-benzenesulfonamdide] |
| 183 | COC(=O)c1ccc(C(=O)N2CCC(c3ccc(C(=O)NC(=N)N)cc3C(F)(F)F)CC2)cc1 [4-[4-(4-Guanidinocarbonyl-2-trifluoromethyl-phenyl)-piperidine-1-carbonyl]-benzoic acid methyl ester] |
| 27 | N=C(N)NC(=O)c1ccc(C2CCN(C(=O)c3ccc(C(=O)O)cc3)CC2)c(C(F)(F)F)c1 [4-[4-(4-Guanidinocarbonyl-2-trifluoromethyl-phenyl)-piperidine-1-carbonyl]-benzoic acid] |
| 92 | CNS(=O)(=O)c1ccc(Oc2ccc(C(=O)N3CCC(c4ccc(C(=O)NC(=N)N)cc4C(F)(F)F)CC3)cn2)cc1 [4-{5-[4-(4-Guanidinocarbonyl-2-trifluoromethyl-phenyl)-piperidine-1-carbonyl]-pyridin-2-yloxy}-N-methyl-benzenesulfonamide] |
| 110 | COc1cc(C2CCN(C(=O)[C@H](OC(C)=O)c3ccccc3)CC2)c(C(F)(F)F)cc1C(=O)NC(=N)N [(R)-Acetic acid 2-[4-(4-guanidinocarbonyl-5-methoxy-2-trifluoromethyl-phenyl)-piperidin-1-yl]-2-oxo-1-phenyl-ethyl ester] |
| 43 | Cn1cnc(C[C@@H](N)C(=O)N2CCC(c3ccc(C(=O)NC(=N)N)cc3C(F)(F)F)CC2)c1 [(R)-N-(4-{1-[-2--Amino-3-(1-methyl-1H-imidazol-4-yl)-propionyl]-piperidin-4-yl}-3-trifluoromethyl-benzoyl)-guanidine] |
| 24 | N=C(N)NC(=O)c1ccc(C2CCN(C(=O)[C@H](N)c3ccccc3)CC2)c(C(F)(F)F)c1 [(R)-N-{4-[1-(2-Amino-2-phenyl-acetyl)-piperidin-4-yl]-3-trifluoromethyl-benzoyl}-guanidine] |
| 24 | N=C(N)NC(=O)c1ccc([C@H]2CCN(C(=O)c3ccc(F)cc3)C2)c(C(F)(F)F)c1 [(R)-N-{4-[1-(4-fluoro-benzoyl)-pyrrolidin-3-yl]-3-trifluoromethyl-benzoyl}-guanidine] |
| 24 | C[C@@](N)(Cc1ccccc1)C(=O)N1CCC(c2ccc(C(=O)NC(=N)N)cc2C(F)(F)F)CC1 [(R)-N-{4-[1-(-2--Amino-2-methyl-3-phenyl-propionyl)-piperidin-4-yl]-3-trifluoromethyl-benzoyl}-guanidine] |
| 28 | N=C(N)NC(=O)c1ccc([C@H]2CCN(C(=O)c3ccco3)C2)c(C(F)(F)F)c1 [(R)-N-{4-[1-(Furan-2-carbonyl)-pyrrolidin-3-yl]-3-trifluoromethyl-benzoyl}-guanidine] |
| 9 | N=C(N)NC(=O)c1ccc(C2CCN(C(=O)[C@@H](N)CC(=O)O)CC2)c(C(F)(F)F)c1 [(S)-3-Amino-4-[4-(4-guanidinocarbonyl-2-trifluoromethyl-phenyl)-piperidin-1-yl]-4-oxo-butyric acid] |
| 92 | COc1cc(C2CCN(C(=O)[C@@H](OC(C)=O)c3ccccc3)CC2)c(C(F)(F)F)cc1C(=O)NC(=N)N [(S)-Acetic acid 2--[4-(4-guanidinocarbonyl-5-methoxy-2-trifluoromethyl-phenyl)-piperidin-1-yl]-2-oxo-1-phenyl-ethyl ester] |
| 49 | Cn1cnc(C[C@H](N)C(=O)N2CCC(c3ccc(C(=O)NC(=N)N)cc3C(F)(F)F)CC2)c1 [(S)-N-(4-{1-[2-Amino-3-(1-methyl-1H-imidazol-4-yl)-propionyl]-piperidin-4-yl}-3-trifluoromethyl-benzoyl)-guanidine] |
| 22 | Cn1cncc1C[C@H](N)C(=O)N1CCC(c2ccc(C(=O)NC(=N)N)cc2C(F)(F)F)CC1 [(S)-N-(4-{1-[2-Amino-3-(3-methyl-3H-imidazol-4-yl)-propionyl]-piperidin-4-yl}-3-trifluoromethyl-benzoyl)-guanidine] |
| 200 | COc1cc(C2CCN(C(=O)[C@@](C)(O)c3ccccc3)CC2)c(C(F)(F)F)cc1C(=O)NC(=N)N [(S)-N-{4-[1-(2-Hydroxy-2-phenyl-propionyl)-piperidin-4-yl]-2-methoxy-5-trifluoromethyl-benzoyl}-guanidine] |
| 21 | N=C(N)NC(=O)c1ccc(C2CCN(C(=O)[C@@H](N)c3ccccc3)CC2)c(C(F)(F)F)c1 [(S)-N-{4-[1-(-2-Amino-2-phenyl-acetyl)-piperidin-4-yl]-3-trifluoromethyl-benzoyl}-guanidine] |
| 12 | C[S+]([O-])CC[C@H](N)C(=O)N1CCC(c2ccc(C(=O)NC(=N)N)cc2C(F)(F)F)CC1 (stereo partly drawn) [(S)-N-{4-[1-(-2-Amino-4-methanesulfinyl-butyryl)-piperidin-4-yl]-3-trifluoromethyl-benzoyl}-guanidine] |
